Data from patent US20230083885A1, “MODULATORS OF INTEGRATED STRESS RESPONSE PATHWAY” (Praxis Biotech LLC, priority 2021, published 2023).
Like-named read-outs stand apart in the source and are kept apart here.

Legend:
ATF4 = ATF4 expression inhibition assay (ATF4 5'UTR luciferase reporter, thapsigargin-stressed); format: cell-based; conditions: Homo sapiens, HEK-293T, read-out: ATF4 inhibition
Method: The ATF4 reporter was prepared by fusing the human full length 5′UTR of ATF4 (NCBI Accession No. BC022088.2) upstream of the firefly luciferase coding sequence lacking the initiator methionine. The fused sequence was cloned into pLenti-EF1a-C-Myc-DDK-IRES-Puro cloning vector (Origen #PS100085) using standard methods.
HEK293T cells carrying the ATF4 luciferase reporter were plated on 96-well plates (Nunc) at 10,000 cells per well. Cells were treated two days after seeding with 100 nM thapsigargin (Tg) (Sigma-Aldrich #T9033) in the presence of different concentrations of selected compounds ranging from 0.1 nM to 10 μM. Cells without treatment or cells treated with Tg alone were used as controls. Assay plates containing cells were incubated for 3 hours at 37° C.
Luciferase reactions were performed using Luciferase Assay System (Promega #E1501) as specified by the manufacturer. Luminescence was read with an integration time of 1 s and a gain of 110 using a Cytation-5 multi-mode microplate reader (BioTek).

[1] = tested on: Chinese hamster ovary (CHO) cells; assay: Protein synthesis assay (puromycin incorporation, Western blot); format: cell-based; conditions: Cricetulus griseus, read-out: % Protein synthesis relative to untreated (1 μM test compound)
Method: Chinese hamster ovary (CHO) cells were maintained at 37° C. and 5% CO2 in Dulbecco's Modified Eagle's Media (DMEM) supplemented with 10% fetal bovine serum, 2 mM L-glutamine, 100 U/ml penicillin, and 100 μg/ml streptomycin. After reaching 80% of confluence, cells were detached and seeded on 6 well plates in complete media, allowed to recover overnight and treated for 2 hours with 1 μM of the test compound (to assess protein synthesis levels in unstressed condition), or for 2 hours with 300 nM Tg in the presence of 1 μM of the test compound (to assess the recovery of protein synthesis in a stressed condition). Cells with Tg alone were used as controls.
After the 2 hours treatments, media were replaced by adding 10 μg/ml puromycin (Sigma Aldrich #P8833) in complete media for 30 min. Media were removed and cells were lysed with SDS-PAGE lysis buffer. Lysates were transferred to 1.5 ml tubes and sonicated for 3 min and total protein amount were quantified using BCA Protein Assay Kit (Pierce). Equal amount of protein (30 μg) was loaded on SDS-PAGE gels.
A HRP-conjugated secondary antibody (Rockland) was employed to detect immune-reactive bands using enhanced chemiluminescence (ECL Western Blotting Substrate, Pierce). Quantification of protein bands was done by densitometry using ImageJ software.
The percentage levels were normalized to the media alone condition, which correspond to 100% protein synthesis. […]

[2] = HEK293T cells carrying ATF4 luciferase reporter, 100 nM thapsigargin, 3 hours
[3] = unstressed CHO cells (without Tg), 1 μM test compound, 2 hours, media alone = 100%

O=C(COc1ccc(Cl)c(F)c1)N[C@H]1CC[C@H](c2nnc([C@@H]3CNc4cc(Cl)ccc4O3)o2)CC1 (single isomer, unassigned) [Compound 42]
IC50 (ATF4; [2]): < 10 nM | activity at 1 µM [1, 3]: 79.9%

O=C(COc1ccc(Cl)c(F)c1)N[C@H]1CC[C@H](c2nnc([C@H]3CNc4cc(Cl)ccc4O3)o2)CC1 (single isomer, unassigned) [Compound 43]
IC50 (ATF4; [2]): < 10 nM | activity at 1 µM [1, 3]: 86.3%

O=C(NC[C@H]1CC[C@H](c2nnc(-c3ccc(Cl)cc3)o2)CC1)c1ccc2cc(Cl)ccc2n1 [Compound 1, trans-6-chloro-N-((4-(5-(4-chlorophenyl)-1,3,4-oxadiazol-2-yl)cyclohexyl)methyl)quinoline-2-carboxamide]
IC50 (ATF4; 3 h): > 1000 nM | activity at 1 µM ([1]; CHO, 2 h): 158%

O=C(NC[C@H]1CC[C@H](c2nnc(-c3ccc(Cl)cc3)o2)CC1)c1cc2cc(Cl)ccc2o1 [Compound 2, trans-5-chloro-N-((4-(5-(4-chlorophenyl)-1,3,4-oxadiazol-2-yl)cyclohexyl)methyl)benzofuran-2-carboxamide]
IC50 (ATF4; [2]): 100 to 1000 nM | activity at 1 µM [1, 3]: 136%

O=C(COc1ccc(Cl)c(F)c1)NC[C@H]1CC[C@H](c2nnc(-c3ccc(Cl)cc3)o2)CC1 [Compound 3, trans-2-(4-chloro-3-fluorophenoxy)-N-((4-(5-(4-chlorophenyl)-1,3,4-oxadiazol-2-yl)cyclohexyl)methyl)acetamide]
IC50 (ATF4; [2]): 10 to 100 nM | activity at 1 µM [1, 3]: 138%

O=C(COc1ccc(Cl)cc1)NC[C@H]1CC[C@H](c2nnc(-c3ccc(Cl)cc3)o2)CC1 [Compound 4, trans-2-(4-chlorophenoxy)-N-((-4-(5-(4-chlorophenyl)-1,3,4-oxadiazol-2-yl)cyclohexyl)methyl)acetamide]
IC50 (ATF4; 3 h): > 1000 nM | activity at 1 µM ([1]; CHO, 2 h): 123%

O=C(N[C@H]1CC[C@H](c2nnc(-c3ccc(Cl)cc3)o2)CC1)c1ccc2cc(Cl)ccc2n1 [Compound 5, trans-6-chloro-N-(4-(5-(4-chlorophenyl)-1,3,4-oxadiazol-2-yl)cyclohexyl)quinoline-2-carboxamide]
IC50 (ATF4; [2]): < 10 nM | activity at 1 µM [1, 3]: 139%

O=C(N[C@H]1CC[C@H](c2nnc(-c3ccc(Cl)cc3)o2)CC1)c1cc2cc(Cl)ccc2o1 [Compound 6, trans-5-chloro-N-(4-(5-(4-chlorophenyl)-1,3,4-oxadiazol-2-yl)cyclohexyl)benzofuran-2-carboxamide]
IC50 (ATF4; [2]): < 10 nM | activity at 1 µM [1, 3]: 111%

O=C(COc1ccc(Cl)c(F)c1)N[C@H]1CC[C@H](c2nnc(-c3ccc(Cl)cc3)o2)CC1 [Compound 7, trans-2-(4-chloro-3-fluorophenoxy)-N-(4-(5-(4-chlorophenyl)-1,3,4-oxadiazol-2-yl)cyclohexyl)acetamide]
IC50 (ATF4; [2]): < 10 nM | activity at 1 µM [1, 3]: 80.9%

O=C(COc1ccc(Cl)cc1)N[C@H]1CC[C@H](c2nnc(-c3ccc(Cl)cc3)o2)CC1 [Compound 8, trans-2-(4-chlorophenoxy)-N-(4-(5-(4-chlorophenyl)-1,3,4-oxadiazol-2-yl)cyclohexyl)acetamide]
IC50 (ATF4; 3 h): < 10 nM | activity at 1 µM ([1]; CHO, 2 h): 96.9%

O=C(N[C@H]1CC[C@H](c2nnc(COc3ccc(Cl)cc3)o2)CC1)c1ccc2cc(Cl)ccc2n1 [Compound 9, trans-6-chloro-N-(4-(5-((4-chlorophenoxy)methyl)-1,3,4-oxadiazol-2-yl)cyclohexyl)quinoline-2-carboxamide]
IC50 (ATF4; [2]): 10 to 100 nM | activity at 1 µM [1, 3]: 204%

O=C(N[C@H]1CC[C@H](c2nnc(COc3ccc(Cl)cc3)o2)CC1)c1cc2cc(Cl)ccc2o1 [Compound 10, trans-5-chloro-N-(4-(5-((4-chlorophenoxy)methyl)-1,3,4-oxadiazol-2-yl)cyclohexyl)benzofuran-2-carboxamide]
IC50 (ATF4; [2]): < 10 nM | activity at 1 µM [1, 3]: 165%

O=C(N[C@H]1CC[C@H](c2nnc(COc3ccc(Cl)cc3)o2)CC1)C1CNc2cc(Cl)ccc2O1 (stereo partly drawn) [Compound 11, trans-6-chloro-N-(4-(5-((4-chlorophenoxy)methyl)-1,3,4-oxadiazol-2-yl)cyclohexyl)-3,4-dihydro-2H-benzo[b][1,4]oxazine-2-carboxamide]
IC50 (ATF4; [2]): 10 to 100 nM | activity at 1 µM [1, 3]: 140%

O=C(COc1ccc(Cl)c(F)c1)N[C@H]1CC[C@H](c2nnc(COc3ccc(Cl)cc3)o2)CC1 [Compound 12, trans-2-(4-chloro-3-fluorophenoxy)-N-(4-(5-((4-chlorophenoxy)methyl)-1,3,4-oxadiazol-2-yl)cyclohexyl)acetamide]
IC50 (ATF4; [2]): < 10 nM | activity at 1 µM [1, 3]: 144%

O=C(COc1ccc(Cl)c(F)c1)N[C@H]1CC[C@H](c2nnc(COc3ccc(Cl)c(F)c3)o2)CC1 [Compound 13, trans-2-(4-chloro-3-fluorophenoxy)-N-(4-(5-((4-chloro-3-fluorophenoxy)methyl)-1,3,4-oxadiazol-2-yl)cyclohexyl)acetamide]
IC50 (ATF4; [2]): < 10 nM | activity at 1 µM [1, 3]: 134%

O=C(COc1ccc(Cl)c(F)c1)N[C@H]1CC[C@H](c2nnc(-c3ccc4cc(Cl)ccc4n3)o2)CC1 [Compound 14, trans-2-(4-chloro-3-fluorophenoxy)-N-(4-(5-(6-chloroquinolin-2-yl)-1,3,4-oxadiazol-2-yl)cyclohexyl)acetamide]
IC50 (ATF4; [2]): < 10 nM | activity at 1 µM [1, 3]: 176%

O=C(N[C@H]1CC[C@H](c2nnc(-c3ccc(Cl)cc3)o2)CC1)c1cnc(C(F)F)cn1 [Compound 15, trans-N-(4-(5-(4-chlorophenyl)-1,3,4-oxadiazol-2-yl)cyclohexyl)-5-(difluoromethyl)pyrazine-2-carboxamide]
IC50 (ATF4; [2]): 10 to 100 nM | activity at 1 µM [1, 3]: 103%

O=C(N[C@H]1CC[C@H](c2nnc(COc3ccc(Cl)cc3)o2)CC1)c1cnc(C(F)F)cn1 [Compound 16, trans-N-(4-(5-((4-chlorophenoxy)methyl)-1,3,4-oxadiazol-2-yl)cyclohexyl)-5-(difluoromethyl)pyrazine-2-carboxamide]
IC50 (ATF4; [2]): > 1000 nM | activity at 1 µM [1, 3]: 115%

O=C(COc1ccc(Cl)c(F)c1)N[C@H]1CC[C@H](c2nnc(-c3ccc(Cl)c(F)c3)o2)CC1 [Compound 17, trans-2-(4-chloro-3-fluorophenoxy)-N-(4-(5-(4-chloro-3-fluorophenyl)-1,3,4-oxadiazol-2-yl)cyclohexyl)acetamide]
IC50 (ATF4; [2]): < 10 nM | activity at 1 µM [1, 3]: 105%

O=C(COc1ccc(Cl)c(F)c1)N[C@H]1CC[C@H](c2nnc(C3CNc4cc(Cl)ccc4O3)o2)CC1 (stereo partly drawn) [Compound 18, trans-N-(4-(5-(6-chloro-3,4-dihydro-2H-benzo[b][1,4]oxazin-2-yl)-1,3,4-oxadiazol-2-yl)cyclohexyl)-2-(4-chloro-3-fluorophenoxy)acetamide]
IC50 (ATF4; [2]): < 10 nM | activity at 1 µM [1, 3]: 127%

O=C(Nc1ccc2cc(Cl)ccc2n1)[C@H]1CC[C@H](c2nnc(-c3ccc(Cl)cc3)o2)CC1 [Compound 19, trans-4-(5-(4-chlorophenyl)-1,3,4-oxadiazol-2-yl)-N-(6-chloroquinolin-2-yl)cyclohexane-1-carboxamide]
IC50 (ATF4; 3 h): 10 to 100 nM | activity at 1 µM ([1]; CHO, 2 h): 100%

O=C(Nc1ccc2cc(Cl)ccc2n1)[C@H]1CC[C@H](c2nnc(C3CCC(F)(F)CC3)o2)CC1 [Compound 28, trans-N-(6-chloroquinolin-2-yl)-4-(5-(4,4-difluorocyclohexyl)-1,3,4-oxadiazol-2-yl)cyclohexanecarboxamide]
IC50 (ATF4; [2]): 100 to 1000 nM | activity at 1 µM [1, 3]: 23.8%
